From US12077503B2, “Substituted cyclic amides and their use as herbicides” (FMC CORPORATION, priority 2015, dated 2024)
Blank lines part the entries; values can stand above or below the compound they belong to.

How the values were obtained:
[1] = test system: Galium (catchweed bedstraw, Galium aparine); experiment: Test C preemergence; format: in vivo; details: for Plant response rating, Galium: scale 0 to 100, 0 no effect, 100 complete control
In short: (§1)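 Greenhouse test: seeds in a loam and sand blend treated preemergence, or seedlings at the 1- to 4-leaf stage (2 to 18 cm) in a peat, vermiculite and limestone mix treated postemergence, with test chemicals in a surfactant-containing non-phytotoxic solvent. Scored by eye at 13 to 15 d relative to controls, 0 (no effect) to 100 (complete control).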

[2] = test system: barnyardgrass (Echinochloa crus-galli); experiment: Test C preemergence; format: in vivo; details: for Plant response rating, Barnyardgrass: scale 0 to 100, 0 no effect, 100 complete control
In short: as §1

[3] = test system: blackgrass (Alopecurus myosuroides); experiment: Test C preemergence; format: in vivo; details: for Plant response rating, Blackgrass: scale 0 to 100, 0 no effect, 100 complete control
In short: as §1

corn (Zea mays) = experiment: Test C preemergence; format: in vivo; details: for Plant response rating, Corn: scale 0 to 100, 0 no effect, 100 complete control
In short: as §1

[4] = test system: crabgrass, large (large crabgrass, Digitaria sanguinalis); experiment: Test C preemergence; format: in vivo; details: for Plant response rating, Crabgrass, Large: scale 0 to 100, 0 no effect, 100 complete control
In short: as §1

[5] = test system: foxtail, giant (giant foxtail, Setaria faberii); experiment: Test C preemergence; format: in vivo; details: for Plant response rating, Foxtail, Giant: scale 0 to 100, 0 no effect, 100 complete control
In short: as §1

[6] = test system: johnsongrass (Sorghum halepense); experiment: Test C preemergence; format: in vivo; details: for Plant response rating, Johnsongrass: scale 0 to 100, 0 no effect, 100 complete control
In short: as §1

[7] = test system: lambsquarters (Chenopodium album); experiment: Test C preemergence; format: in vivo; details: for Plant response rating, Lambsquarters: scale 0 to 100, 0 no effect, 100 complete control
In short: as §1

[8] = test system: morningglory (Ipomoea coccinea); experiment: Test C preemergence; format: in vivo; details: for Plant response rating, Morningglory: scale 0 to 100, 0 no effect, 100 complete control
In short: as §1

[9] = test system: nutsedge, yellow (yellow nutsedge, Cyperus esculentus); experiment: Test C preemergence; format: in vivo; details: for Plant response rating, Nutsedge, Yellow: scale 0 to 100, 0 no effect, 100 complete control
In short: as §1

[10] = test system: oilseed rape (Brassica napus); experiment: Test C preemergence; format: in vivo; details: for Plant response rating, Oilseed Rape: scale 0 to 100, 0 no effect, 100 complete control
In short: as §1

[11] = test system: pigweed (Amaranthus retroflexus); experiment: Test C preemergence; format: in vivo; details: for Plant response rating, Pigweed: scale 0 to 100, 0 no effect, 100 complete control
In short: as §1

[12] = test system: ragweed (common ragweed, Ambrosia elatior); experiment: Test C preemergence; format: in vivo; details: for Plant response rating, Ragweed: scale 0 to 100, 0 no effect, 100 complete control
In short: as §1

[13] = test system: ryegrass, Italian (Italian ryegrass, Lolium multiflorum); experiment: Test C preemergence; format: in vivo; details: for Plant response rating, Ryegrass, Italian: scale 0 to 100, 0 no effect, 100 complete control
In short: as §1

soybean (Glycine max) = experiment: Test C preemergence; format: in vivo; details: for Plant response rating, Soybean: scale 0 to 100, 0 no effect, 100 complete control
In short: as §1

[14] = test system: velvetleaf (Abutilon theophrasti); experiment: Test C preemergence; format: in vivo; details: for Plant response rating, Velvetleaf: scale 0 to 100, 0 no effect, 100 complete control
In short: as §1

[15] = test system: waterhemp (common waterhemp, Amaranthus rudis); experiment: Test C preemergence; format: in vivo; details: for Plant response rating, Waterhemp: scale 0 to 100, 0 no effect, 100 complete control
In short: as §1

[16] = test system: wheat (winter wheat, Triticum aestivum); experiment: Test C preemergence; format: in vivo; details: for Plant response rating, Wheat: scale 0 to 100, 0 no effect, 100 complete control
In short: as §1

rice (Oryza sativa) = experiment: Test C flooded paddy test; format: in vivo; details: Flood; for Plant response rating (scale of 0 to 100), Rice: 0 is no effect, 100 is complete control
In short: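 Compound was added directly to paddy water held 3 cm above the soil, with plants at the 2-leaf stage. Injury was scored visually versus untreated controls after 13–15 d greenhouse growth, using a 0–100 scale where 100 means complete control.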

[17] = 31 g ai/ha, 0 is no effect, 100 is complete control

SMILES: CN1CC(c2cc(F)cc(F)c2)C(C(=O)Nc2cccc(F)c2F)C1=O (stereo not shown) [Compound 644]
Plant response rating (scale of 0 to 100), Galium [1, 17]: 10 | Plant response rating, Galium ([1]; 62 g ai/ha): 85 | Plant response rating, Galium ([1]; 125 g ai/ha): 90 | Plant response rating, Galium ([1]; 250 g ai/ha): 98 | Plant response rating (scale of 0 to 100), Barnyardgrass [2, 17]: 90 | Plant response rating, Barnyardgrass ([2]; 62 g ai/ha): 95 | Plant response rating, Barnyardgrass ([2]; 125 g ai/ha): 98 | Plant response rating, Barnyardgrass ([2]; 250 g ai/ha): 98 | Plant response rating (scale of 0 to 100), Blackgrass [3, 17]: 70 | Plant response rating, Blackgrass ([3]; 62 g ai/ha): 70 | Plant response rating, Blackgrass ([3]; 125 g ai/ha): 90 | Plant response rating, Blackgrass ([3]; 250 g ai/ha): 95 | Plant response rating (scale of 0 to 100), Corn (corn (Zea mays); [17]): 30 | Plant response rating, Corn (corn (Zea mays); 62 g ai/ha): 50 | Plant response rating, Corn (corn (Zea mays); 125 g ai/ha): 65 | Plant response rating, Corn (corn (Zea mays); 250 g ai/ha): 85 | Plant response rating (scale of 0 to 100), Crabgrass, Large [4, 17]: 95 | Plant response rating, Crabgrass, Large ([4]; 62 g ai/ha): 95 | Plant response rating, Crabgrass, Large ([4]; 125 g ai/ha): 98 | Plant response rating, Crabgrass, Large ([4]; 250 g ai/ha): 100 | Plant response rating (scale of 0 to 100), Foxtail, Giant [5, 17]: 95 | Plant response rating, Foxtail, Giant ([5]; 62 g ai/ha): 95 | Plant response rating, Foxtail, Giant ([5]; 125 g ai/ha): 98 | Plant response rating, Foxtail, Giant ([5]; 250 g ai/ha): 98 | Plant response rating (scale of 0 to 100), Johnsongrass [6, 17]: 35 | Plant response rating, Johnsongrass ([6]; 62 g ai/ha): 70 | Plant response rating, Johnsongrass ([6]; 125 g ai/ha): 85 | Plant response rating, Johnsongrass ([6]; 250 g ai/ha): 85 | Plant response rating (scale of 0 to 100), Lambsquarters [7, 17]: 50 | Plant response rating, Lambsquarters ([7]; 62 g ai/ha): 75 | Plant response rating, Lambsquarters ([7]; 125 g ai/ha): 85 | Plant response rating, Lambsquarters ([7]; 250 g ai/ha): 85 | Plant response rating (scale of 0 to 100), Morningglory [8, 17]: 0 | Plant response rating, Morningglory ([8]; 62 g ai/ha): 0 | Plant response rating, Morningglory ([8]; 125 g ai/ha): 0 | Plant response rating, Morningglory ([8]; 250 g ai/ha): 0 | Plant response rating (scale of 0 to 100), Nutsedge, Yellow [9, 17]: 0 | Plant response rating, Nutsedge, Yellow ([9]; 62 g ai/ha): 0 | Plant response rating, Nutsedge, Yellow ([9]; 125 g ai/ha): 0 | Plant response rating, Nutsedge, Yellow ([9]; 250 g ai/ha): 15 | Plant response rating (scale of 0 to 100), Oilseed Rape [10, 17]: 0 | Plant response rating, Oilseed Rape ([10]; 62 g ai/ha): 50 | Plant response rating, Oilseed Rape ([10]; 125 g ai/ha): 85 | Plant response rating, Oilseed Rape ([10]; 250 g ai/ha): 90 | Plant response rating (scale of 0 to 100), Pigweed [11, 17]: 0 | Plant response rating, Pigweed ([11]; 62 g ai/ha): 55 | Plant response rating, Pigweed ([11]; 125 g ai/ha): 55 | Plant response rating, Pigweed ([11]; 250 g ai/ha): 70 | Plant response rating (scale of 0 to 100), Ragweed [12, 17]: 25 | Plant response rating, Ragweed ([12]; 62 g ai/ha): 35 | Plant response rating, Ragweed ([12]; 125 g ai/ha): 70 | Plant response rating, Ragweed ([12]; 250 g ai/ha): 85 | Plant response rating (scale of 0 to 100), Ryegrass, Italian [13, 17]: 50 | Plant response rating, Ryegrass, Italian ([13]; 62 g ai/ha): 55 | Plant response rating, Ryegrass, Italian ([13]; 125 g ai/ha): 65 | Plant response rating, Ryegrass, Italian ([13]; 250 g ai/ha): 98 | Plant response rating (scale of 0 to 100), Soybean (soybean (Glycine max); [17]): 10 | Plant response rating, Soybean (soybean (Glycine max); 62 g ai/ha): 10 | Plant response rating, Soybean (soybean (Glycine max); 125 g ai/ha): 0 | Plant response rating (scale of 0 to 100), Velvetleaf [14, 17]: 5 | Plant response rating, Velvetleaf ([14]; 62 g ai/ha): 15 | Plant response rating, Velvetleaf ([14]; 125 g ai/ha): 40 | Plant response rating, Velvetleaf ([14]; 250 g ai/ha): 60 | Plant response rating (scale of 0 to 100), Waterhemp [15, 17]: 10 | Plant response rating, Waterhemp ([15]; 62 g ai/ha): 65 | Plant response rating, Waterhemp ([15]; 125 g ai/ha): 65 | Plant response rating, Waterhemp ([15]; 250 g ai/ha): 80 | Plant response rating (scale of 0 to 100), Wheat [16, 17]: 30 | Plant response rating, Wheat ([16]; 62 g ai/ha): 80 | Plant response rating, Wheat ([16]; 125 g ai/ha): 85 | Plant response rating, Wheat ([16]; 250 g ai/ha): 90 | Plant response rating, Rice (rice (Oryza sativa); 31 g ai/ha, scale 0 to 100 (0 no effect, 100 complete control), 13 to 15 d): 0 | Plant response rating (scale of 0 to 100), Rice (rice (Oryza sativa); 62 g ai/ha): 0 | Plant response rating (scale of 0 to 100), Rice (rice (Oryza sativa); 125 g ai/ha): 0 | Plant response rating (scale of 0 to 100), Rice (rice (Oryza sativa); 250 g ai/ha): 0

melting point: 162 to 166 °C
SMILES: CC(C)=CC1CNC(=O)C1C(=O)Nc1cccc(F)c1F (stereo not shown) [Compound 1012]

melting point: 163 to 167 °C
SMILES: COc1cccc([C@H]2CN(C)C(=O)[C@@H]2C(=O)Nc2cccc(F)c2F)c1F [Compound 1072]

melting point: 113 to 117 °C
SMILES: C=C(C)c1cccc([C@H]2CN(C)C(=O)[C@@H]2C(=O)Nc2cccc(F)c2F)c1 [Compound 1085]

melting point: 89 to 93 °C
SMILES: C=C(C)c1cccc([C@H]2CN(C)C(=O)[C@@H]2C(=O)Nc2cccc(F)c2C)c1 [Compound 1086]

melting point: 141 to 145 °C
SMILES: CN1C[C@H](c2ccc(F)c(Oc3ccccc3)c2)[C@@H](C(=O)Nc2ccccc2S(C)(=O)=O)C1=O [Compound 1143]

melting point: 126 to 130 °C
SMILES: C=C(C)c1ccc([C@H]2CN(C)C(=O)[C@@H]2C(=O)Nc2cccc(F)c2F)cc1 [Compound 1149]

melting point: 123 to 127 °C
SMILES: O=C1NC[C@H](c2ccc(F)c(Oc3ccccc3)c2)[C@H]1C(=O)Nc1cccc(F)c1F [Compound 1258]

melting point: 187 to 191 °C
SMILES: COc1ccc([C@H]2CNC(=O)[C@@H]2C(=O)Nc2cccc(F)c2F)cc1 [Compound 1341]

melting point: 130 to 134 °C
SMILES: COc1ccc([C@H]2CN(C)C(=O)[C@@H]2C(=O)Nc2cccc(F)c2F)cc1 [Compound 1343]

melting point: 81 to 85 °C
SMILES: O=C1NC[C@H](c2cc(Br)cc(Br)c2)[C@H]1C(=O)Nc1cccc(F)c1F [Compound 1366]
